Laboratory results: patent US20230265116A1, “DEGRADATION OF (EGFR) BY CONJUGATION OF EGFR INHIBITORS WITH E3 LIGASE LIGAND AND METHODS OF USE” (BEIGENE, LTD., priority 2020, published 2023)
One block for each molecule: values may come before it.

Columns and labels:
Assay type in all cases: cell-based
[1] = target: T1, EGFR L858R/T790M/C797S (BaF3-LTC cells) (Homo sapiens, UniProt P00533, C797S/L858R/T790M); assay: EGFR degradation HTRF assay, BaF3-LTC cells; conditions: BaF3-LTC cells; for DC50: EGFR degradation, IC50 (DC50) from curve fit, read-out: DC50(nM) BaF3-LTC; for Dmax: maximum percentage of inhibition (degradation), read-out: Dmax (%) BaF3-LTC
T1 construct: expressed in transfected cells; host or cells: BaF3
T1 sequence (P00533 25-1210 T790M/C797S/L858R): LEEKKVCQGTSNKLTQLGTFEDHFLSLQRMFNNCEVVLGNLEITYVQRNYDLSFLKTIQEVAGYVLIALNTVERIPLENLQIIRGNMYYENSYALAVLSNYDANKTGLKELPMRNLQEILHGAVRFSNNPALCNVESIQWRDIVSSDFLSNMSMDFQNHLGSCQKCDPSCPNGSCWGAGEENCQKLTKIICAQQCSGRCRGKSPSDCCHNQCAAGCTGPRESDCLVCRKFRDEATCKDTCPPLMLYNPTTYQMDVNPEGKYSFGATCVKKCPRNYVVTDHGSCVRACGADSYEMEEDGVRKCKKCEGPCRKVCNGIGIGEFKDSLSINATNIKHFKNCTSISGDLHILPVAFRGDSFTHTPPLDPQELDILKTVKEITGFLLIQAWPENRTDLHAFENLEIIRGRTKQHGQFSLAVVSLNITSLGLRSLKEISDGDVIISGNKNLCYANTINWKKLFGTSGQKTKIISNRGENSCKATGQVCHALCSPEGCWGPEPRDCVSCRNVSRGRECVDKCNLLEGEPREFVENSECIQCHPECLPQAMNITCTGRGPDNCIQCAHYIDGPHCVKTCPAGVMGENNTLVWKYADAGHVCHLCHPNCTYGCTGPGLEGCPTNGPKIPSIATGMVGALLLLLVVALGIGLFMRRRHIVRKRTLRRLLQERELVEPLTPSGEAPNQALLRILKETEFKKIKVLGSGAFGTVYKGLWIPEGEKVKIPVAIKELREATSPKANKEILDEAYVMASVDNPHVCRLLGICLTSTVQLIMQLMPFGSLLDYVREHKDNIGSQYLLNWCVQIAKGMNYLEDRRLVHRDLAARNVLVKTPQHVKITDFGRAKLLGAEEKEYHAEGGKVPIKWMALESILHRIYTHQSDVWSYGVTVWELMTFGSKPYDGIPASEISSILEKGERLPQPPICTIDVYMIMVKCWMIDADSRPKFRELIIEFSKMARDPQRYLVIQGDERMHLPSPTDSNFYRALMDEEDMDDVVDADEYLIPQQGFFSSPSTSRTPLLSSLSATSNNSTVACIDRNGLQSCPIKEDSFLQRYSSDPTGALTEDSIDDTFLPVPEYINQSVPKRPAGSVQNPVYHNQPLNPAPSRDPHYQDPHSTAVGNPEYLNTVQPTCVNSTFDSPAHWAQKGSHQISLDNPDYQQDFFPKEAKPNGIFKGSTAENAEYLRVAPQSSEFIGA
Method in brief: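 EGFR remaining after a 16 h, 37 °C exposure (8 doses, 5-fold steps from 10 uM final, 0.2% DMSO) was quantified by HTRF antibodies in cell lysate. Percent inhibition relative to DMSO control was fitted by four-parameter logistic to give DC50; Dmax denotes maximal degradation.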

[2] = target: T2, EGFR L858R/C797S (BaF3 LC cells) (Homo sapiens, UniProt P00533, C797S/L858R); assay: EGFR degradation HTRF assay, BaF3 LC cells; conditions: BaF3 LC, 16h treatment; for DC50: read-out: BaF3 LC DC50; for Dmax: maximum percentage of degradation, read-out: BaF3 LC Dmax (%)
T2 construct: expressed in transfected cells; host or cells: BaF3
T2 sequence (P00533 25-1210 C797S/L858R): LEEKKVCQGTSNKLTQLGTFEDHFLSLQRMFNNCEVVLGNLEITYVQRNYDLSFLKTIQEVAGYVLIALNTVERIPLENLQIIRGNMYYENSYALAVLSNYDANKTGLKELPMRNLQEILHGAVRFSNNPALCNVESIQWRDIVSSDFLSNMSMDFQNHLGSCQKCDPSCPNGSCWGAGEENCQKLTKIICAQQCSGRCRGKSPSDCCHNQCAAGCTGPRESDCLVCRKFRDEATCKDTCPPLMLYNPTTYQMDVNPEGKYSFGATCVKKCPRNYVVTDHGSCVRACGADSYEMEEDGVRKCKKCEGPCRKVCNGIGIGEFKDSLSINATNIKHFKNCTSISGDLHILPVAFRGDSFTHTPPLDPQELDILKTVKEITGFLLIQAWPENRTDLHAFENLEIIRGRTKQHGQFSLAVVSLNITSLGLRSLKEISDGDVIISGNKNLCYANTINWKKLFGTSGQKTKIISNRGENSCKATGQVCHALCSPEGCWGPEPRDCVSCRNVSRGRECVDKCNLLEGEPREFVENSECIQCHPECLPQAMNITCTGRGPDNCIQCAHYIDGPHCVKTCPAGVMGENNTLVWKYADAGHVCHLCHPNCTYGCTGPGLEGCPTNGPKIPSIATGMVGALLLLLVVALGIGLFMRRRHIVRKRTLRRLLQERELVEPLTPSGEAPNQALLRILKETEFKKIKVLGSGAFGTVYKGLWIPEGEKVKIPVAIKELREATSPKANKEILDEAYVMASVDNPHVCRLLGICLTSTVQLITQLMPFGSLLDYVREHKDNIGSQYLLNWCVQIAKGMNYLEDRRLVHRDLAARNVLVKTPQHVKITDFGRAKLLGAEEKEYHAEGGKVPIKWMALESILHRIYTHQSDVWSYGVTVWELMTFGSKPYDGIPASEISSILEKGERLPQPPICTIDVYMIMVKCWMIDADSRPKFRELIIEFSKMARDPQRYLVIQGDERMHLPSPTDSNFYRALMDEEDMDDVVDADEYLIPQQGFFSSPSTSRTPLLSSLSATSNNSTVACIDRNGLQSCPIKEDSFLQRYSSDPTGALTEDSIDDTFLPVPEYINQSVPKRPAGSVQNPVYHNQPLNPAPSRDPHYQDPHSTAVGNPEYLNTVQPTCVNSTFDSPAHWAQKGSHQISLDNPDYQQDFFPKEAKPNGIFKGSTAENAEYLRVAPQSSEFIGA

[3] = system: EGFR Del19/C797S (H1975-clone #23); assay: EGFR degradation HTRF assay, H1975-clone #23 DC cells; conditions: 16h treatment; for H1975 #23 DC Dmax (%): maximum percentage of degradation; for DC50: H1975 #23 DC, read-out: H1975 #23 DC DC50
Protocol: H1975-clone #28(Del19/T790M/C797S) and H1975-clone #23(Del19/C797S). EGFR-Del19/T790M/C797S and EGFR-Del19/C797S were stably expressed in H1975 cell lines by lentivirus-mediated over-expression, respectively. The EGFR over-expressed cells then underwent gene knockout, in which the EGFR targeting sgRNA was designed to only target the endogenous EGFR copies and preserve the exogenous EGFR copies. Followed by the gene knockout, the edited H1975 cells were seeded in 96 well plates at the concentration of 1 cell/well, cultured for about 2 weeks to allow single clones formation. The formed clones were screened by DNA sequencing and whole exon sequencing analysis for the desired edition. H1975-clone #28 and H1975-clone #23 were finally confirmed as homozygous Del19/T790M/C797S EGFR and Del19/C797S EGFR clones, respectively.
BaF3 WT(wild type), BaF3-LTC(L858R/T790M/C797S) and BaF3-DTC(Del19/T790M/C797S) cells are treated with compounds diluted in 0.2% DMSO cell culture medium and incubate for 16h, 37° C., 5% CO2, H1975-#36, H1975-#28, H1975-#23 and HCC827 cells are treated with compounds diluted in 0.2% DMSO cell culture medium on day 2, incubate for 16h, 37° C., 5% CO2.the final concentriation of compounds in all assay is start with 10 uM, 5-fold dilution, total 8 doses were included.
After 16h treatment, add HTRF lysis buffer to each well; seal the plate and incubate 1 hour at room temperature on a plate shaker; Once the cells are lysed, 16 μL of cell lysate are transferred to a PE 384-well HTRF detection plate; 4 μL of pre-mixed HTRF antibodies are added to each well; Cover the plate with a plate sealer, spin 1000 rpm for 1 min, Incubate overnight at room temperature; Read on BMG PheraStar with HTRF protocol (337 nm-665 nm-620 nm).
The inhibition (degradation) percentage of the compound was calculated by the following equation: Inhibition percentage of Compound=100-100×(Signal-low control)/(High control-low control), wherein signal=each test compound group
High control=Cell group with added DMSO and without compound, indicating microplate readings without EGFR degradation;
Dmax is the maximum percentage of inhibition (degradation).
The IC50 (DC50) value of a compound can be obtained by fitting the following equation
Y=Bottom+(TOP−Bottom)/(1+((IC50/X)^hillslope))
Wherein, X and Y are known values, and IC50, Hillslope, Top and Bottom are the parameters obtained by fitting with software. Y is the inhibition percentage (calculated from the equation), X is the concentration of the compound; IC50 is the concentration of the compound when the 50% inhibition is reached. The smaller the IC50 value is, the stronger the inhibitory ability of the compound is. Vice versa, the higher the IC50 value is, the weaker the inhibitory ability of the compound is; Hillslope represents the slope of the fitted curve, generally around 1*; Bottom represents the minimum value of the curve obtained by data fitting, which is generally 0%±20%; Top represents the maximum value of the curve obtained by data fitting, which is generally 100%±20%. The experimental data were fitted by calculating and analyzing with Dotmatics data analysis software.

[4] = system: EGFR Del19/T790M/C797S (H1975-clone #28); assay: EGFR degradation HTRF assay, H1975-clone #28 DTC cells; conditions: H1975 # 28 DTC cells; for DC50: EGFR degradation, IC50 (DC50) from curve fit, read-out: DC50(nM) H1975 # 28 DTC; for Dmax (%) H1975 # 28 DTC: maximum percentage of inhibition (degradation)
Method in brief: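 Cells were dosed on day 2 with an 8-point, 5-fold dilution series starting at 10 uM final and incubated 16h at 37° C. After lysis for 1 hour, HTRF antibodies were added overnight at room temperature and the plate was read at 665/620 nm. Degradation was normalised to DMSO wells and fitted for DC50 and Dmax.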

Compound: CCOc1cc(N2CCC(N3CCN(CCc4c(F)ccc5c4n(C)c(=O)n5C4CCC(=O)NC4=O)CC3)CC2)c(CC)cc1Nc1ncc(Br)c(Nc2ccc3nc(CC)ccc3c2P(C)(C)=O)n1 (centres unmarked) [Example 503, 3-(4-(2-(4-(1-(4-((5-bromo-4-((5-(dimethylphosphoryl)-2-ethylquinolin-6-yl)amino)pyrimidin-2-yl)amino)-5-ethoxy-2-ethylphenyl)piperidin-4-yl)piperazin-1-yl)ethyl)-5-fluoro-3-methyl-2-oxo-2,3-dihydro-1H-benzo[d]imidazol-1-yl)piperidine-2,6-dione]
- DC50 [1]: 7 nM
- DC50 [2]: 7.53 nM
- H1975 #23 DC Dmax (%) [3]: 81.03%
- DC50 [3]: 1.57 nM
- DC50 [4]: 1.34 nM
- Dmax (%) H1975 # 28 DTC [4]: 79.81%

Compound: CCOc1cc(N2CCC(N3CCN(CCc4cccc5c4n(C4CC4)c(=O)n5C4CCC(=O)NC4=O)CC3)CC2)c(CC)cc1Nc1ncc(Br)c(Nc2ccc3nc(CC)ccc3c2P(C)(C)=O)n1 (centres unmarked) [Example 468, 3-(4-(2-(4-(1-(4-((5-bromo-4-((5-(dimethylphosphoryl)-2-ethylquinolin-6-yl)amino)pyrimidin-2-yl)amino)-5-ethoxy-2-ethylphenyl)piperidin-4-yl)piperazin-1-yl)ethyl)-3-cyclopropyl-2-oxo-2,3-dihydro-1H-benzo[d]imidazol-1-yl)piperidine-2,6-dione]
- DC50 [1]: 12.2 nM
- Dmax [1]: 90.2%
- Dmax [2]: 82.8%
- DC50 [2]: 66.1 nM
- H1975 #23 DC Dmax (%) [3]: 79.65%
- DC50 [3]: 11.9 nM
- DC50 [4]: 0.998 nM
- Dmax (%) H1975 # 28 DTC [4]: 74.46%

Compound: CCOc1cc(N2CCC(N3CCN(CC4CN(c5cc(F)c([C@H]6CCC(=O)NC6=O)c(F)c5)C4)CC3)CC2)c(CC)cc1Nc1ncc(Br)c(Nc2ccc3c(=O)n(CC)ncc3c2P(C)(C)=O)n1 [Example 551, (R)-3-(4-(3-((4-(1-(4-((5-bromo-4-((5-(dimethylphosphoryl)-2-ethyl-1-oxo-1,2-dihydrophthalazin-6-yl)amino)pyrimidin-2-yl)amino)-5-ethoxy-2-ethylphenyl)piperidin-4-yl)piperazin-1-yl)methyl)azetidin-1-yl)-2,6-difluorophenyl)piperidine-2,6-dione]
- DC50 [1]: 6.19 nM
- DC50 [2]: 46.5 nM
- H1975 #23 DC Dmax (%) [3]: 84.14%
- DC50 [3]: 5.64 nM
- DC50 [4]: 1.62 nM
- Dmax (%) H1975 # 28 DTC [4]: 90.57%

Compound: CCc1cc(Nc2ncc(Br)c(Nc3ccc4nc(C)ccc4c3P(C)(C)=O)n2)c(OC)cc1N1CCC(N2CCN(C(=O)[C@@H]3CCN(c4cc(F)c([C@H]5CCC(=O)NC5=O)c(F)c4)C3)CC2)CC1 [Example 750, (R)-3-(4-((R)-3-(4-(1-(4-((5-bromo-4-((5-(dimethylphosphoryl)-2-methylquinolin-6-yl)amino)pyrimidin-2-yl)amino)-2-ethyl-5-methoxyphenyl)piperidin-4-yl)piperazine-1-carbonyl)pyrrolidin-1-yl)-2,6-difluorophenyl)piperidine-2,6-dione]
- DC50 [2]: 26.1 nM
- H1975 #23 DC Dmax (%) [3]: 74.02%
- DC50 [3]: 6.52 nM
- DC50 [4]: 1.17 nM
- Dmax (%) H1975 # 28 DTC [4]: 84.8%

Compound: CCc1ccc2c(P(C)(C)=O)c(Nc3nc(Nc4cc(CC)c(N5CCC(N6CCN(CCc7cc(F)c([C@H]8CCC(=O)NC8=O)c(F)c7)CC6)CC5)cc4OC)ncc3Br)ccc2n1 [Example 484, (R)-3-(4-(2-(4-(1-(4-((5-bromo-4-((5-(dimethylphosphoryl)-2-ethylquinolin-6-yl)amino)pyrimidin-2-yl)amino)-2-ethyl-5-methoxyphenyl)piperidin-4-yl)piperazin-1-yl)ethyl)-2,6-difluorophenyl)piperidine-2,6-dione]
- DC50 [2]: 11.9 nM
- H1975 #23 DC Dmax (%) [3]: 82.99%
- DC50 [3]: 3.54 nM
- DC50 [4]: 0.781 nM
- Dmax (%) H1975 # 28 DTC [4]: 89.6%

Compound: CCc1ccc2c(P(C)(C)=O)c(Nc3nc(Nc4cc(CC)c(N5CCC(N6CCN(C(=O)[C@@H]7CCN(c8cc(F)c([C@H]9CCC(=O)NC9=O)c(F)c8)C7)CC6)CC5)cc4OC)ncc3Br)ccc2n1 [Example 489, (R)-3-(4-((R)-3-(4-(1-(4-((5-bromo-4-((5-(dimethylphosphoryl)-2-ethylquinolin-6-yl)amino)pyrimidin-2-yl)amino)-2-ethyl-5-methoxyphenyl)piperidin-4-yl)piperazine-1-carbonyl)pyrrolidin-1-yl)-2,6-difluorophenyl)piperidine-2,6-dione]
- DC50 [2]: 19.7 nM
- H1975 #23 DC Dmax (%) [3]: 59.94%
- DC50 [3]: 4.72 nM
- DC50 [4]: 1.37 nM
- Dmax (%) H1975 # 28 DTC [4]: 82.72%

Stronger by DC50 [2], values ahead:

- DC50 [1]: 2.3 nM
- Dmax [1]: 85.5%
- Dmax [2]: 91.3%
- DC50 [2]: 2.23 nM
- DC50 [3]: 0.787 nM
- DC50 [4]: 0.92 nM
Compound: CCOc1cc(N2CCC(N3CCN(CCCc4cc(F)cc5c4oc(=O)n5C4CCC(=O)NC4=O)CC3)CC2)c(CC)cc1Nc1ncc(Br)c(Nc2ccc3nc(CC)ccc3c2P(C)(C)=O)n1 (centres unmarked) [Example 496, 3-(7-(3-(4-(1-(4-((5-bromo-4-((5-(dimethylphosphoryl)-2-ethylquinolin-6-yl)amino)pyrimidin-2-yl)amino)-5-ethoxy-2-ethylphenyl)piperidin-4-yl)piperazin-1-yl)propyl)-5-fluoro-2-oxobenzo[d]oxazol-3(2H)-yl)piperidine-2,6-dione]
- H1975 #23 DC Dmax (%) [3]: 95.59%
- Dmax (%) H1975 # 28 DTC [4]: 75.32%

- DC50 [1]: 1.3 nM
- Dmax [1]: 92.8%
- Dmax [2]: 95.7%
- DC50 [2]: 2.41 nM
- DC50 [3]: 0.974 nM
- DC50 [4]: 0.2 nM
Compound: CCc1cc(Nc2ncc(Br)c(Nc3ccc4nc(C)ccc4c3P(C)(C)=O)n2)c(OC)cc1N1CCC(N2CCN(CCc3ccc4c(c3)oc(=O)n4C3CCC(=O)NC3=O)CC2)CC1 (centres unmarked) [Example 490, 3-(6-(2-(4-(1-(4-((5-bromo-4-((5-(dimethylphosphoryl)-2-methylquinolin-6-yl)amino)pyrimidin-2-yl)amino)-2-ethyl-5-methoxyphenyl)piperidin-4-yl)piperazin-1-yl)ethyl)-2-oxobenzo[d]oxazol-3(2H)-yl)piperidine-2,6-dione]
- H1975 #23 DC Dmax (%) [3]: 64.67%
- Dmax (%) H1975 # 28 DTC [4]: 80.5%

- DC50 [1]: 3.51 nM
- Dmax [1]: 94.3%
- Dmax [2]: 94%
- DC50 [2]: 3.51 nM
- DC50 [3]: 1.83 nM
- DC50 [4]: 0.771 nM
Compound: CCc1cc(Nc2ncc(Br)c(Nc3ccc4nc(C)ccc4c3P(C)(C)=O)n2)c(OC)cc1N1CCC(N2CCN(CCc3cccc4c3C(C)(C)C(=O)N4C3CCC(=O)NC3=O)CC2)CC1 (centres unmarked) [Example 514, 3-(4-(2-(4-(1-(4-((5-bromo-4-((5-(dimethylphosphoryl)-2-methylquinolin-6-yl)amino)pyrimidin-2-yl)amino)-2-ethyl-5-methoxyphenyl)piperidin-4-yl)piperazin-1-yl)ethyl)-3,3-dimethyl-2-oxoindolin-1-yl)piperidine-2,6-dione]
- H1975 #23 DC Dmax (%) [3]: 76.66%
- Dmax (%) H1975 # 28 DTC [4]: 66.48%
